# From US4137236A, “Amino-spiro[oxa(or thia)cycloalkane-penam]-carboxylic” (U C B, Societe Anonyme, priority 1977, dated 1979)
# What was measured:
# Format in all cases: cell-based
# [1] = tested on: Staphylococcus aureus 6538; assay: MIC in gelose culture medium (relative to reference penicillin); conditions: S.AUREUS 6538; reference 6-amino-penicillanic acid = 1
# Protocol: This is a Gram-positive coccus which is particularly sensitive to penicillins and which has a low resistance mechanism. This strain of Staphylococcus is, therefore, representative of a maximum sensitivity of the species.
# (§1) For a certain number of compounds of formula (XV), the minimum inhibitory concentration (MIC) was determined as follows:
# (§2) The products to be tested are introduced in increasing concentrations into a gelose culture medium in Petri dishes. A multiple inoculator is used to deposit simultaneously drops (10 microliters) of inoculum (suspension of approximately 10^5 bacteria per ml) onto the surface of the medium. After incubation at 37° C for 24 hours, the growth of the bacteria is observed. By definition, the MIC is expressed by the minimum concentration of tested compound which inhibits the multiplication of the bacteia. In the following results, however, the MIC is given as being equal to 1 for the reference compounds and the activity figures given for the tested compounds of formula (XV) are, therefore, relative values. This presentation of the results is more correct and the most reproducible because, for one and the same bacterial strain, different MIC values can be observed if they are measured at different times. This is bound up with the "seasonal" variations in the strains and their nutrient medium.
# [2] = tested on: Staphylococcus aureus 52149; assay: as above; conditions: S.AUREUS 52149; reference 6-amino-penicillanic acid = 1
# Protocol: This is a Gram-positive coccus, the intrinsic sensitivity of the receptor of which is equivalent to that of the preceding strain but which produces a beta-lactamase which is typical of the species and which renders it resistant to all the penicillins which are sensitive to hydrolysis.
# as §1, §2
# Escherichia coli B = assay: as above; conditions: E.COLI B; reference 6-amino-penicillanic acid = 1
# Protocol: This is a well-known collection strain of Escherichia coli which produces very little beta-lactamase (of type I) and is, therefore, very sensitive to penicillins. As regards the classification of the beta-lactamases, use is here made of that proposed by M. H. RICHMOND and R. B. SYKES (see Advances in Microbial Physiology,9,(1973),pp.43 and 45).
# as §1, §2
# [3] = tested on: Escherichia coli B-Ampi R; assay: as above; conditions: E.COLI B AMPI-R; reference 6-amino-penicillanic acid = 1
# Protocol: This is a mutant of the preceding strain which we have produced.
# as §1, §2
# [4] = tested on: Gram-positive and Gram-negative bacteria; assay: Comparative antibacterial activity spectra; conditions: towards both Gram-positive and Gram-negative bacteria
# Protocol: as §2
compound,measurement,setting,value
"N[C@@H]1C(=O)N2[C@@H]1SC1(CCOCC1)[C@@H]2C(=O)O (relative stereo) [Compound D, 6-amino-2',3',5',6'-tetrahydro-spiro[penam-2,4'-[4H]-pyran]-3-carboxylic acid]",MIC relative to reference compound (=1),[1],0.5
same,MIC relative to reference compound (=1),[2],0.5
same,MIC relative to reference compound (=1),Escherichia coli B,0.3
same,MIC relative to reference compound (=1),[3],0.3
same,Activity as compared with 6-amino-penicillanic acid (in words),[4],better activity
